What was measured:
H460^C cells = assay: DHA- and FINO2-induced cell death with FSEN1 co-treatment; format: cell-based; conditions: 1 μM FSEN1
Procedure: (§1) For cell-based screen, cells were seeded in triplicate at a density of 500-750 cells per 50 μL per well in black 384-well plates (NUNC) and (Corning) 24 hr before start of imaging. After 24 hr, an additional 50 μL of drug infused medium containing 30 nM SYTOX Green Dead Cell Stain was carefully placed into the wells on top of existing medium. The plates were immediately transferred to an IncuCyte S3 imaging system (Essen Bioscience) enclosed in an incubator set to 37° C. and 5% CO2. One image per well were captured in the phase, green, and red channels every 1.5 or 3 hr over a 24 hr period, and the ratio of SYTOX Green-positive objects (dead cells) to SYTOX Green-positive plus Sg-SAFE mCherry-positive objects (total cells) was quantified using S3 image analysis software (Essen Bioscience). For each treatment condition, the SYTOX-to-′SYTOX+mCherry′-object ratio was plotted against the 24 hr imaging interval, the Area Under the Curve (AUC) was calculated and the average AUC was plotted using Prism (GraphPad). To calculate the half-maximal effective concentration (EC50) values, the AUC curve was fit to a variable slope function comparing response to drug concentration.
Synergy experiments: For cell-based synergy experiments, cells were seeded at a density of 750 cells per 25 μL per well in four black 384-well plates (Corning) 24 hr before start of imaging. After 24 hr, an additional 25 μL of drug infused medium containing 30 nM SYTOX Green Dead Cell Stain was carefully placed into the wells on top of existing medium. The plates were immediately transferred to an IncuCyte S3 imaging system (Essen Bioscience) enclosed in an incubator set to 37° C. and 5% CO2. One image per well were captured in the phase, green, and red channels every 4 hr over a 24 hr period, and the ratio of SYTOX Green-positive objects (dead cells) to SYTOX Green-positive plus Sg-SAFE mCherry-positive objects (total cells) was quantified using S3 image analysis software (Essen Bioscience). For each treatment condition, the SYTOX-to-′SYTOX+mCherry′-object ratio was plotted against the 24 hr imaging interval, the Area Under the Curve (AUC) was calculated, and the average AUC was plotted as a function of drug concentration (for example, RSL3) using Prism (GraphPad). To calculate the half-maximal effective concentration (EC50) values, the AUC curve was fit to a variable slope function comparing response to drug concentration.

H460^C GPX4^KO cells = assay: cell-based assay of FSP1 activity, cell death (SYTOX Green/mCherry lethal fraction); conditions: H460^C GPX4^KO cells; read-out: EC50 for triggering cell death
Procedure: as §1
In addition to the in vitro activity assay, an orthogonal cell-based assay of FSP1 activity was also developed. […]

Compound: COc1ccc(N2CCN(Cc3cn4c(-c5ccc(Br)cc5)nnc4s3)CC2)cc1 [FSEN1]
- sensitization to cell death induced by DHA and FINO2 (H460^C cells): strongly sensitized
- EC50 (H460^C GPX4^KO cells): 69.4 nM

— US20250161297A1, “COMPOSITIONS AND METHODS FOR INHIBITING FSP1” (THE REGENTS OF THE UNIVERSITY OF CALIFORNIA, priority 2022, published 2025)
